From publication PMC6308032 (Molecular Metabolism, 2018)

Tests used:
[1] = Clinical pharmacokinetics, MAD part; type: in vivo; conditions: human, SC once weekly
patients with T2DM = assay: Adverse events, Phase 1b POC part; type: in vivo, human; conditions: for Any TEAE: T2DM patients
[2] = system: healthy subjects and patients with T2DM; assay: ECG analysis; type: in vivo, human
[3] = Clinical pharmacokinetics, SAD part; type: in vivo; conditions: human; for AUC(0-inf) / CL/F / Cmax / Tmax / Vd/F / half-life: plasma, sc
[4] = Immunogenicity, anti-drug antibody; type: in vivo, human; conditions: whole study
[5] = system: healthy subjects and patients with T2DM; assay: Other safety laboratory parameters; type: in vivo, human
healthy subjects = assay: Pharmacodynamics; type: in vivo, human; conditions: MAD, dulaglutide 1.5 mg/wk, LSM

## CC[C@H](C)[C@H](NC(=O)[C@H](CC(C)C)NC(=O)[C@H](Cc1c[nH]c2ccccc12)NC(=O)[C@H](CCC(N)=O)NC(=O)[C@@H](NC(=O)[C@H](Cc1ccccc1)NC(=O)[C@H](C)NC(=O)[C@H](CCCCNC(=O)COCCOCCNC(=O)COCCOCCNC(=O)CC[C@H](NC(=O)CCCCCCCCCCCCCCCCCCC(=O)O)C(=O)O)NC(=O)[C@H](CCC(N)=O)NC(=O)[C@H](C)NC(=O)[C@@H](NC(=O)[C@H](CCCCN)NC(=O)[C@H](CC(=O)O)NC(=O)[C@H](CC(C)C)NC(=O)C(C)(C)NC(=O)[C@@H](NC(=O)[C@H](CO)NC(=O)[C@H](Cc1ccc(O)cc1)NC(=O)[C@H](CC(=O)O)NC(=O)[C@H](CO)NC(=O)[C@@H](NC(=O)[C@H](Cc1ccccc1)NC(=O)[C@@H](NC(=O)CNC(=O)[C@H](CCC(=O)O)NC(=O)C(C)(C)NC(=O)[C@@H](N)Cc1ccc(O)cc1)[C@@H](C)O)[C@@H](C)O)[C@@H](C)CC)[C@@H](C)CC)C(C)C)C(=O)N[C@@H](C)C(=O)NCC(=O)NCC(=O)N1CCC[C@H]1C(=O)N[C@@H](CO)C(=O)N[C@@H](CO)C(=O)NCC(=O)N[C@@H](C)C(=O)N1CCC[C@H]1C(=O)N1CCC[C@H]1C(=O)N1CCC[C@H]1C(=O)N[C@@H](CO)C(N)=O [LY3298176]
[1]
  average accumulation following four weekly doses: 1.58
  mean steady-state volume of distribution: 9.5 L
Patients with T2DM; 0.5 mg, N=9
  Abdominal distension: 0 (0.0) n (%)
  Abdominal pain: 0 (0.0) n (%)
  Acute pancreatitis: 0 (0.0) n (%)
  Decreased appetite: 2 (22.2) n (%)
  Dermatitis allergic: 0 (0.0) n (%)
  Diarrhoea: 1 (11.1) n (%)
  Dyspepsia: 0 (0.0) n (%)
  Eructation: 0 (0.0) n (%)
  Gastrooesophageal reflux disease: 0 (0.0) n (%)
  Headache: 1 (11.1) n (%)
  Hepatic enzyme increased: 0 (0.0) n (%)
  Injection site reaction: 0 (0.0) n (%)
  Nausea: 1 (11.1) n (%)
  Pancreatic enzyme increased: 0 (0.0) n (%)
  Serious adverse events: 0 (0.0) n (%)
  Severe hypoglycaemia: 0 (0.0) n (%)
  Study discontinuation due to adverse events: 0 (0.0) n (%)
  TEAE Mild, events: 15 events
  TEAE Moderate, events: 0 events
  TEAE Severe, events: 0 events
  Total hypoglycaemia (≤70 mg/dL): 0 (0.0) n (%)
  Vomiting: 1 (11.1) n (%)
  Weight decrease (TEAE): 0 (0.0) n (%)
Patients with T2DM; 5 mg, N=9
  Abdominal distension: 1 (11.1) n (%)
  Abdominal pain: 0 (0.0) n (%)
  Acute pancreatitis: 0 (0.0) n (%)
  Decreased appetite: 6 (66.7) n (%)
  Dermatitis allergic: 0 (0.0) n (%)
  Diarrhoea: 1 (11.1) n (%)
  Dyspepsia: 0 (0.0) n (%)
  Eructation: 0 (0.0) n (%)
  Gastrooesophageal reflux disease: 1 (11.1) n (%)
  Headache: 0 (0.0) n (%)
  Hepatic enzyme increased: 0 (0.0) n (%)
  Injection site reaction: 0 (0.0) n (%)
  Nausea: 1 (11.1) n (%)
  Pancreatic enzyme increased: 0 (0.0) n (%)
  Serious adverse events: 0 (0.0) n (%)
  Severe hypoglycaemia: 0 (0.0) n (%)
  Study discontinuation due to adverse events: 3 (33.3) n (%)
  TEAE Mild, events: 17 events
  TEAE Moderate, events: 0 events
  TEAE Severe, events: 0 events
  Total hypoglycaemia (≤70 mg/dL): 0 (0.0) n (%)
  Vomiting: 0 (0.0) n (%)
  Weight decrease (TEAE): 0 (0.0) n (%)
Patients with T2DM; 5/5/10/10 mg, N=12
  Abdominal distension: 2 (16.7) n (%)
  Abdominal pain: 0 (0.0) n (%)
  Acute pancreatitis: 0 (0.0) n (%)
  Decreased appetite: 5 (41.7) n (%)
  Dermatitis allergic: 0 (0.0) n (%)
  Diarrhoea: 3 (25.0) n (%)
  Dyspepsia: 3 (25.0) n (%)
  Eructation: 1 (8.3) n (%)
  Gastrooesophageal reflux disease: 1 (8.3) n (%)
  Headache: 0 (0.0) n (%)
  Hepatic enzyme increased: 1 (8.3) n (%)
  Injection site reaction: 0 (0.0) n (%)
  Nausea: 1 (8.3) n (%)
  Pancreatic enzyme increased: 0 (0.0) n (%)
  Serious adverse events: 0 (0.0) n (%)
  Severe hypoglycaemia: 0 (0.0) n (%)
  Study discontinuation due to adverse events: 0 (0.0) n (%)
  TEAE Mild, events: 54 events
  TEAE Moderate, events: 1 events
  TEAE Severe, events: 0 events
  Total hypoglycaemia (≤70 mg/dL): 2 (16.7) n (%)
  Vomiting: 1 (8.3) n (%)
  Weight decrease (TEAE): 2 (16.7) n (%)
Patients with T2DM; 5/5/10/15 mg, N=12
  Abdominal distension: 7 (58.3) n (%)
  Abdominal pain: 2 (16.7) n (%)
  Acute pancreatitis: 0 (0.0) n (%)
  Decreased appetite: 11 (91.7) n (%)
  Dermatitis allergic: 2 (16.7) n (%)
  Diarrhoea: 5 (41.7) n (%)
  Dyspepsia: 0 (0.0) n (%)
  Eructation: 4 (33.3) n (%)
  Gastrooesophageal reflux disease: 5 (41.7) n (%)
  Headache: 2 (16.7) n (%)
  Hepatic enzyme increased: 1 (8.3) n (%)
  Injection site reaction: 0 (0.0) n (%)
  Nausea: 6 (50.0) n (%)
  Pancreatic enzyme increased: 1 (8.3) n (%)
  Serious adverse events: 0 (0.0) n (%)
  Severe hypoglycaemia: 0 (0.0) n (%)
  Study discontinuation due to adverse events: 0 (0.0) n (%)
  TEAE Mild, events: 87 events
  TEAE Moderate, events: 9 events
  TEAE Severe, events: 0 events
  Total hypoglycaemia (≤70 mg/dL): 1 (8.3) n (%)
  Vomiting: 9 (75.0) n (%)
  Weight decrease (TEAE): 2 (16.7) n (%)
Patients with T2DM; 0.5 mg QW x4 SC, N=9
  Any TEAE: 5 (55.6) n (%)
Patients with T2DM; 5 mg QW x4 SC, N=9
  Any TEAE: 7 (77.8) n (%)
Patients with T2DM; 5/5/10/10 mg QW SC, N=12
  Any TEAE: 10 (83.3) n (%)
Patients with T2DM; 5/5/10/15 mg QW SC, N=12
  Any TEAE: 11 (91.7) n (%)
[2]
  drug-related QT prolongation: no signal of drug-related QT prolongation
[3]; SC, over the doses studied
  time of maximum concentration after dosing: 24 to 48 h
[3]; 0.25 mg
  AUC(0-inf): 5760 ng·h/mL
  CL/F: 0.723 mL/min
  Cmax: 26 ng/mL
  Tmax: 48 h
  Vd/F: 7.26 L
  half-life: 4.83 days
[3]; 0.5 mg
  AUC(0-inf): 12000 ng·h/mL
  CL/F: 0.693 mL/min
  Cmax: 57.7 ng/mL
  Tmax: 48 h
  Vd/F: 7.46 L
  half-life: 5.17 days
[3]; 1 mg
  AUC(0-inf): 22600 ng·h/mL
  CL/F: 0.738 mL/min
  Cmax: 108 ng/mL
  Tmax: 24 h
  Vd/F: 6.76 L
[3]; 2.5 mg
  AUC(0-inf): 53200 ng·h/mL
  CL/F: 0.783 mL/min
  Cmax: 231 ng/mL
  Tmax: 24 h
  Vd/F: 8.15 L
[3]; 5 mg
  AUC(0-inf): 90500 ng·h/mL
  CL/F: 0.922 mL/min
  Cmax: 397 ng/mL
  Tmax: 24 h
  Vd/F: 9.8 L
[3]; 8 mg
  AUC(0-inf): 169000 ng·h/mL
  CL/F: 0.787 mL/min
  Cmax: 874 ng/mL
  Tmax: 48 h
  Vd/F: 7.55 L
[3]; mean half-life
  half-life: ~5 days
[4]
  subjects who developed treatment-emergent or treatment-boosted ADAs: Four
[5]
  lipase and amylase, mean values compared to baseline: Increases from baseline in mean values of lipase and amylase within the normal range

## Dulaglutide: selective GLP-1 receptor agonist, positive control, 1.5 mg/0.5 mL single-use pen
Healthy subjects
  Body Weight Change from Baseline, Day 29: -1.3 kg
